According to publication PMC10423028 (FEMS Microbiology Letters, 2023):

Biological target: VFT^pp (periplasmic VFT domain of RmcA^pp) (Pseudomonas putida, UniProt Q88QU8)
Experiment: biochemical

VFT^pp (periplasmic VFT domain of RmcA^pp), sequence (Q88QU8 21-265): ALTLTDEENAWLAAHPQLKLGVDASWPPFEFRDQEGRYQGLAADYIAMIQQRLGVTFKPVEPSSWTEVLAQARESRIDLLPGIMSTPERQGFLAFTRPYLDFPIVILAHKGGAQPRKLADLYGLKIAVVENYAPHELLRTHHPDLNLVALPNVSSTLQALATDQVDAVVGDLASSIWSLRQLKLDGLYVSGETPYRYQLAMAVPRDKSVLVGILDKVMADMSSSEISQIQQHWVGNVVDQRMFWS

A Kd of 7.1 ± 2.2 µM was found for N=C(N)NCCC[C@H](N)C(=O)O [L-arginine] in this work.
